Several values for one entry are separate records, joined by “and”; a condition that tells them apart may be missing. Equal values may be shown once.

A short description of series [1]: Photochromic property of binder sheet (photochromic layer made by binder method). Format: physicochemical. To be noted: for Residual ratio: A96/A0 x 100 after 96 hours accelerated degradation, xenon weather meter X25; for Color developing density at 23°C: absorbance difference after 240 seconds irradiation at the maximum absorption wavelength of the same line. How it is done:
(§1) The resulting photochromic laminates were evaluated by the below-mentioned methods. • (1) Photochromic property • [1] Maximum absorption wavelength (λmax): This is the maximum absorption wavelength after color development determined by a spectrophotometer manufactured by Otsuka Electronics Co., Ltd. (instantaneous multichannel photo detector MCPD3000) and was used as an index of a color tone upon color development. • [2] Color developing density at 23°C (A23): This is a difference between an absorbance {ε(240)} after irradiation with light at 23°C for 240 seconds and an absorbance ε(0) when not irradiated with light at the maximum absorption wavelength and was used as an index of a color developing density. The higher this value is, the better a photochromic property is. • [3] Color fading half-life at 23°C [τ1/2 (sec).)]: This is a period of time taken by an absorbance at the maximum absorption wavelength of a sample to decrease to 1/2 of {ε(240)-ε(0)} when irradiation is stopped after irradiation with light at 23°C for 240 seconds, and was used as an index of a color fading rate. The shorter this period of time is, the faster the color fading rate is. • [4] Residual ratio (A96/A0 x 100): The resulting photochromic plastic lens was subjected to accelerated degradation for 96 hours using a xenon weather meter X25 manufactured by Suga Test Instruments Co., Ltd. Color developing densities were then evaluated before and after a test, and a color developing density before the test (A0) and a color developing density after the test (A96) were measured. A ratio (A96/A0) was determined as a residual ratio and was used as an index of color development durability. The higher the residual ratio is, the more durable the color development is.
A binder sheet was produced as follows. The binder sheet was made by laminating a first optical sheet, a first adhesive layer, a photochromic layer, a second adhesive layer, and a second optical sheet in this order. A polycarbonate sheet with a thickness of 400 µm was used as the first optical sheet and the second optical sheet.
A 2 L four-necked flask equipped with a stirring blade, a condense tube, a thermometer, and a nitrogen gas inlet tube was charged with 315 parts by mass of polycarbonate diol with a number average molecular weight of 1000, 100 parts by mass of isophorone diisocyanate, and 72 parts by mass of toluene and reacted under a nitrogen atmosphere at 100°C for 7 hours. Thus, a urethane prepolymer with a terminal isocyanate group was synthesized. After the reaction of the above-mentioned urethane prepolymer was completed, the resulting reaction liquid was cooled to about 0°C and dissolved in 205 parts by mass of tertiary-butyl alcohol and 382 parts by mass of diethyl ketone, and then a temperature of the resulting liquid was kept at 0°C. Next, a mixed solution of 21.3 parts by mass of bis-(4-aminocyclohexyl)methane serving as a chain extender and 20 parts by mass of diethyl ketone was added dropwise thereto within 30 minutes and reacted at 0°C for 1 hour. Then, 8.1 parts by mass of 1,2,2,6,6-pentamethyl-4-aminopiperidine was added dropwise thereto and reacted at 0°C for 1 hour to obtain a solution of a terminal non-reactive urethane urea resin in diethylketone.
One hundred parts by mass of the resulting solution of a terminal non-reactive urethane urea resin, 6.3 parts by mass of Example 1 (a photochromic compound represented by Formula (1-7), an isomer mixture of 4,4'-methylenebis(cyclohexylisocyanate) (polyisocyanate compound)), 0.4 parts by mass of ethylenebis(oxyethylene) bis[3-(5-tert-butyl-4-hydroxy-m-tolyl) propionate] serving as an antioxidant, and 0.06 parts by mass of L-7001 manufactured by DuPont Toray Specialty Materials K.K. serving as a surfactant were added and stirred and mixed at room temperature to obtain a composition for forming a photochromic layer. […]

Series [2] is described as follows: Photochromic property of photochromic cured product made by kneading method. Format: physicochemical. To be noted: for Residual ratio: A96/A0 x 100 after 96 hours accelerated degradation, xenon weather meter X25; for Color developing density at 23°C: absorbance difference after 240 seconds irradiation at the maximum absorption wavelength of the same line. How it is done:
as §1
First, the photochromic compound obtained in Example 1, an additive, and a polymerizable compound were mixed to obtain a curable composition. The polymerizable compound was a combination of the following polymerizable monomers: • · 1,3-Bis(isocyanatomethyl)cyclohexane: 36.7 parts by mass • · Pentaerythritol tetrakis(3-mercaptopropionate): 39.4 parts by mass • · Polyoxyethylene polyoxypropylene lauryl ether (WONDERSURF 140 manufactured by AOKI OIL INDUSTRIAL Co., Ltd.): 17.4 parts by mass • · 1-Decanethiol: 2.8 parts by mass • · RX-1 prepared by the method described in Patent Document 14: 3.8 parts by mass
Note that, in the curable composition, the photochromic compound was added in an amount of 0.106 mmol taking a total amount of the polymerizable monomers as 100 g.
The following additives were used: • · Dimethyltin dichloride: 0.05 parts by mass • · Irganox 245: 0.1 parts by mass • · 2-Ethylhexyl […]: 0.6 parts by mass
After the thus-prepared curable composition was thoroughly defoamed, it was poured into a glass mold with a gap of 1 mm and polymerized by casting polymerization. […] After the polymerization, the resulting cured product was removed from the glass mold to obtain a photochromic cured product with a thickness of 1 mm. The resulting photochromic cured product was evaluated in the same manner as for Example 23.
Photochromic cured products were produced using the photochromic compounds shown in Table 4 in the same manner as in Example 50.

For `CCCCC1(CCC)c2ccccc2-c2c1c1c(c3cc(OC)c(N4CCOCC4)cc23)OC(c2ccc(OC)cc2)(c2ccc(OC)cc2)C=C1` (stereo not drawn) [Formula (6-2)], in series [1], the Residual ratio is 75% and 72%.
For the compound `COc1ccc(C2(c3ccc(OC)cc3)C=Cc3c4c(c5cc(N6CCOCC6)c(OC)cc5c3O2)-c2ccccc2C4(C)C)cc1` [Formula (A), reference compound], in series [2], the Residual ratio is 54% and 56%; the “Color developing density at 23°C” value was 1.68 - and 0.85 -. Also, the Residual ratio in series [1] is 63% and 65%.
For `CCC1(OC)c2ccccc2-c2c1c1c(c3cc(OC)c(N4CCOCC4)cc23)OC(c2ccc(OC)cc2)(c2ccc(OC)cc2)C=C1` (stereo not drawn) [Formula (B), reference compound], in series [2], the Residual ratio is 40% and 42%; the “Color developing density at 23°C” value is 1.32 - and 0.69 -. In series [1], the Residual ratio was 50% and 51%; the “Color developing density at 23°C” value is 1.32 - and 0.71 -.
For the compound `CCC1(C)c2ccccc2-c2c1c1c(c3cc(OC)c(N(C)c4ccccc4)cc23)OC(c2ccc(OC)cc2)(c2ccc(OC)cc2)C=C1` (stereo not drawn) [Formula (9-1)], in series [2], the Residual ratio was 79% and the “Color developing density at 23°C” value is given as 1.20 -. In addition, in series [1], the Residual ratio is on record as 93% and the “Color developing density at 23°C” value is on record as 1.19 -.
For `CCCCCCC1(CC)c2ccccc2-c2c1c1c(c3cc(OC)c(N4CCOCC4)cc23)OC(c2ccc(OC)cc2)(c2ccc(OC)cc2)C=C1` (stereo not drawn) [Formula (18-1)], the Residual ratio in series [2] was 60% and 61%; in series [1], 71% and 74%.
For `CCCCCCCCCCCC1(C)c2ccccc2-c2c1c1c(c3cc(OC)c(N4CCOCC4)cc23)OC(c2ccc(OC)cc2)(c2ccc(OC)cc2)C=C1` (stereo not drawn) [Formula (19-1)], the Residual ratio is 52% and 55% in series [2]; 62% and 66% in series [1].
For the compound `CCCC1(CC)c2ccccc2-c2c1c1c(c3cc(OC)c(N4CCOCC4)cc23)OC(c2ccc(OC)cc2)(c2ccc(OC)cc2)C=C1` (stereo not drawn) [Formula (14-1)], the Residual ratio was 63% and 64% in series [2]; 75% in series [1].

Values taken from patent EP4763837A1, “PHOTOCHROMIC COMPOUND, CURABLE COMPOSITION, OPTICAL ARTICLE, LENS, AND EYEGLASSES” (TOKUYAMA CORPORATION, priority 2023, dated 2025).
